Here are results for six compounds from the supplement of paper PMC11061612.

In test [1] the test system is HCC1937 (Breast Carcinoma). Nature of the test: combination Emax (second highest fraction inhibited in the dose matrix, 72 h); higher = more inhibition; extreme values may be limits of the assay. The method, boiled down:
(§1)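 Cell lines in DMEM/F12 or RPMI with 10% FBS were plated in 1536-well plates, held 24 hours at 37°C, 5% CO2, then given two-drug dose matrices for 72 hours (DMSO typically 0.2%). Viability was read by CellTiter-Glo 2.0 luminescence and scaled as inhibition from 0 (vehicle wells) to 1 (blank wells). Combination Emax is the second-highest inhibition in the matrix; Bliss excess is observed combination effect minus expected EA + EB − EA·EB, EA and EB being single-agent effects.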

Test [2] deals with SNU-387 (Hepatocellular Carcinoma). Described as above. The method, boiled down: as §1
Test [3] has as its system KGN (Other Solid Carcinomas). The description is as above. The gist of the method:
as §1

Test [4] has as its system KOPN-8 (B-Lymphoblastic Leukemia). Described as above. The gist of the method: as §1
Test [5] relates to ME-180 (Cervical Carcinoma). The description is as above. The method, boiled down:
as §1

Test [6] relates to MOLT-4 (T-Lymphoblastic Leukemia). Described as above. The gist of the method: as §1
In test [7] the test system is NCI-H2122 (Lung Adenocarcinoma). The test is described as above. The method, boiled down:
as §1

A further test relates to COLO-679 (Melanoma). The description is as above. The method, boiled down: as §1
Test [8] has as its system A4-Fuk (B-Lymphoblastic Leukemia). The test is described as above. The method, boiled down: as §1
Test [9] has as its system SK-LU-1 (Lung Adenocarcinoma). Described as above. The method, boiled down:
as §1

Test [10] relates to OACM5-1 (Esophageal Adenocarcinoma). Described as above. The method, boiled down:
as §1

Test [11] concerns MV-4-11 (Acute Myeloid Leukemia). Described as above. The method, boiled down: as §1
In test [12] the test system is MDA-MB-453 (Breast Carcinoma). Described as above. The gist of the method: as §1
For test [13], the system named is SW872 (Other Solid Carcinomas). The test is described as above. The gist of the method: as §1
Test [14] relates to NCI-H1838 (Lung Adenocarcinoma). The test is described as above. The method, boiled down: as §1
Test [15] relates to NCI-H1092 (Small Cell Lung Carcinoma). Described as above. The gist of the method:
as §1

Another test relates to EW-1 (Ewing's Sarcoma). The description is as above. The gist of the method:
as §1

Test [16] deals with HAL-01 (B-Lymphoblastic Leukemia). The test is described as above. The gist of the method: as §1
The subject of test [17] is NCI-H2122 (Lung Adenocarcinoma). The experiment in a line: Bliss excess, mean over the matrix (fraction); higher = more synergy. The method, boiled down: as §1
In test [18] the test system is EJM (Plasma Cell Myeloma). The description is as above. The gist of the method:
as §1
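Throughout, for Bliss excess, mean over the matrix: after 72 h of two-drug dosing.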

For `CN(CCO)CC[C@H](CSc1ccccc1)Nc1ccc(S(=O)(=O)NC(=O)c2ccc(N3CCC([C@@H](O)c4ccccc4-c4ccc(Cl)cc4)CC3)cc2)cc1S(=O)(=O)C(F)(F)F` [AZD4320] + C=CCn1c(=O)c2cnc(Nc3ccc(N4CCN(C)CC4)cc3)nc2n1-c1cccc(C(C)(C)O)n1 [AZD1775] (first compound max 1 µM, partner max 1 µM), the “combination Emax” value in [1] stood at 0.791; in test [2], 0.681; in test [3], 0.784; in [4], 1; in test [5], 0.581; in test [6], 1. Further, the “combination Emax” value turned out to be 0.953 in [7]; 0.521 in the test with COLO-679 (Melanoma); 0.898 in test [8]; 0.542 in test [9]; 0.635 in test [10]; 1 in test [11]. Moreover, the “combination Emax” value in [12] is 0.285; in test [13] it was 0.3; in [14], 0.541; in test [15] it was 0.809; in the test on EW-1 (Ewing's Sarcoma), 1; in test [16], 1. Also, the figures for the Bliss excess in test [17] and in test [18] were -0.0143 and 0.0256, respectively.

As to `CN(CCO)CC[C@H](CSc1ccccc1)Nc1ccc(S(=O)(=O)NC(=O)c2ccc(N3CCC([C@@H](O)c4ccccc4-c4ccc(Cl)cc4)CC3)cc2)cc1S(=O)(=O)C(F)(F)F` [AZD4320] + CN(C)CCCOc1ccc(-c2ccc3ncc4c(c3c2)n(C2CCOCC2)c(=O)n4C)cn1 [AZD0156] (first compound max 1 µM, 7x7, partner max 1 µM), the “combination Emax” value in test [1] stood at 0.439; in test [2], 0.183; in test [3], 0.425; in test [4], 0.898; in test [5], 0.246; in test [6], 0.976. In addition, the “combination Emax” value in [7] worked out at 0.24; with COLO-679 (Melanoma) it was 0.162; in [8], 0.476; in [9], 0.322; in [10], 0.433; in test [11], 1. For the same compound, the “combination Emax” value in test [12] was 0.175; in test [13] it was 0.148; in test [14] it was 0.225; in test [15], 0.862; with EW-1 (Ewing's Sarcoma) it was 0.705; in test [16], 0.853. For the same compound, the results for the Bliss excess in test [17] and in test [18] were -0.0121 and 0.0079, respectively.

Take `COc1nnc2ccc(N3CCC(c4ccc(OCCN5CCN(C)C(=O)[C@H]5C)cc4)CC3)nn12` [AZD5153] + C=CCn1c(=O)c2cnc(Nc3ccc(N4CCN(C)CC4)cc3)nc2n1-c1cccc(C(C)(C)O)n1 [AZD1775] (first compound max 1 µM, partner max 1 µM): the “combination Emax” value was found to be 0.472 in test [1]; 0.469 in [2]; 0.781 in [3]; 1 in [4]; 0.68 in test [5]; 1 in test [6]. Besides, the “combination Emax” value in [7] came to 0.993; in the test on COLO-679 (Melanoma) it was 0.505; in test [8] it was 0.967; in test [9], 0.442; in test [10] it was 0.869; in test [11], 1. Further, the “combination Emax” value in test [12] was 0.731; in test [13] it was 0.593; in [14] it was 0.441; in test [15], 0.684; in the test on EW-1 (Ewing's Sarcoma), 0.883; in [16], 0.88. Further, the Bliss excess in [17] is -0.0432; in test [18] it was 0.0229.

Take `COc1nnc2ccc(N3CCC(c4ccc(OCCN5CCN(C)C(=O)[C@H]5C)cc4)CC3)nn12` [AZD5153] + CC1(C)CCC(CN2CCN(c3ccc(C(=O)NS(=O)(=O)c4ccc(NCC5CCOCC5)c([N+](=O)[O-])c4)c(Oc4cnc5[nH]ccc5c4)c3)CC2)=C(c2ccc(Cl)cc2)C1 [Venetoclax] (first compound max 1 µM, 7x7, partner max 1 µM): the “combination Emax” value in test [1] is 0.344; in test [2], 0.434; in test [3], 0.729; in test [4], 1; in [5] it was 0.49; in test [6], 0.425. In addition, the “combination Emax” value was 0.78 in test [7]; 0.442 in the test on COLO-679 (Melanoma); 0.871 in test [8]; 0.358 in [9]; 0.607 in test [10]; 1 in test [11]. Also, the “combination Emax” value in test [12] is 0.649; in [13], 0.561; in test [14], 0.35; in [15], 0.478; in the test on EW-1 (Ewing's Sarcoma), 0.56; in [16] it was 0.979. Further, the values for the Bliss excess in test [17] and in test [18] were -0.041 and -0.0381, respectively.

Turning to `COc1nnc2ccc(N3CCC(c4ccc(OCCN5CCN(C)C(=O)[C@H]5C)cc4)CC3)nn12` [AZD5153] + CCN(CCO)CCCOc1ccc2c(Nc3cc(CC(=O)Nc4cccc(F)c4)[nH]n3)ncnc2c1 [AZD2811] (first compound max 1 µM, 7x7, partner max 1 µM), the “combination Emax” value was 0.383 in test [1]; 0.487 in test [2]; 0.691 in test [3]; 0.996 in test [4]; 0.524 in test [5]; 1 in test [6]. Besides, the “combination Emax” value in [7] came to 0.853; with COLO-679 (Melanoma) it was 0.485; in test [8], 0.893; in test [9], 0.404; in test [10], 0.734; in test [11], 1. The “combination Emax” value in test [12] was 0.677; in test [13], 0.578; in test [14], 0.441; in test [15], 0.374; in the test on EW-1 (Ewing's Sarcoma), 0.64; in [16], 0.752. Moreover, the Bliss excess in [17] is -0.08; in [18], 0.0224.

As for `COc1nnc2ccc(N3CCC(c4ccc(OCCN5CCN(C)C(=O)[C@H]5C)cc4)CC3)nn12` [AZD5153] + C[C@@H]1COCCN1C2=NC(=NC(=C2)C3(CC3)[S@](=N)(=O)C)C4=C5C=CNC5=NC=C4 [AZD6738] (first compound max 1 µM, 7x7, partner max 10 µM), the “combination Emax” value is 0.434 in test [1]; 0.524 in test [2]; 0.822 in test [3]; 1 in test [4]; 0.696 in test [5]; 0.999 in test [6]. The “combination Emax” value was 0.981 in test [7]; 0.718 in the test with COLO-679 (Melanoma); 0.882 in [8]; 0.516 in [9]; 0.886 in test [10]; 1 in [11]. The “combination Emax” value in [12] amounted to 0.837; in [13], 0.634; in test [14], 0.441; in test [15] it was 0.523; with EW-1 (Ewing's Sarcoma), 0.953; in test [16] it was 0.965. Also, the Bliss excess in [17] is -0.0163; in [18], 0.0187.
